Earlier results as cited in patent publication US20080027034A1, “Ciclesonide and Syk Inhibitor Combination and Method of Use Thereof” (priority 2004, published 2008).

What was measured:
[1] = not given; remark: listed apart in the source
[2] = compared with budesonide

**Q.** Which results are given for `CC(C)C(=O)OCC(=O)[C@@]12O[C@H](C3CCCCC3)O[C@@H]1C[C@H]1[C@@H]3CCC4=CC(=O)C=C[C@]4(C)[C@H]3[C@@H](O)C[C@@]12C` [Ciclesonide, [11β,16α(R)]-16,17-[(Cyclohexylmethylen)bis(oxy)]-11-hydroxy-21-(2-methyl-1-oxoprop-oxy)pregna-1,4-dien-3,20-dione]?
**A.** systemic activity relative to budesonide (compared with budesonide): three times lower; systemic activity (in vivo): low; metabolism by liver oxidases ([1]; liver oxidases): very high; concentration of the drug in the lungs ([1]; lungs): high; absorption after oral administration ([1]; oral administration): only moderately absorbed; plasma half-life ([1]; plasma): low; anti-inflammatory activity relative to budesonide [2]: higher
